Results from publication PMC6321453, “Identification of Pinocembrin as an Anti-Glycation Agent and α-Glucosidase Inhibitor from Fingerroot (Boesenbergia rotunda): The Tentative Structure–Activity Relationship towards MG-Trapping Activity” (Molecules, 2018).

Legend:
[1] = test system: MG-derived AGEs formation in BSA; assay: In vitro glycation of BSA by MG-BSA assay (fluorescent-AGEs formation); format: biochemical, bovine; conditions: compound 0.1 mM, BSA 10 mg/mL, MG 0.25 mM, PBS pH 7.4, 37 °C, 24 h; fluorescence ex 355/em 460 nm
Experimental: All isolated compounds were evaluated for their inhibitory effect on the fluorescent-AGEs formation after incubation with bovine serum albumin (BSA) and MG for 24 h (Figure 2).
Figure 2 Advanced glycation-end products (AGEs) inhibition activity of aminoguanidine (0.1 mM) and isolated compounds (0.1 mM) on MG-derived AGEs formation inhibition in BSA. The results are presented as mean ± SEM for n = 3. Different letters show significant differences analyzed by ANOVA with Duncan’s post hoc test (p < 0.05).
Glycated BSA was carried out according to our previous study. The mixture of bovine serum albumin (BSA, 10 mg/mL), isolated compound (0.1 mM in dimethyl sulfoxide, DMSO), and methylglyoxal (MG, 0.25 mM) in 0.1 M phosphate buffer solution (PBS, pH 7.4) was incubated at 37 °C for 24 h. The glycated BSA was monitored by a spectrofluorometer (Fluroskan Ascent FL, Thermo Scientific, Barrington, IL, USA) at the excitation wavelength of 355 nm, and an emission wavelength of 460 nm. Aminoguanidine hydrochloride (AG) was utilized as a positive control. The percentage inhibition of MG-derived AGE formation was calculated by utilizing the formula below:(1) Inhibition of AGEs formation (%)=(FC−FCB)−(FS−FSB)/FC−FCB×100 where FC and FCB are the fluorescent intensities of the control with and without MG, respectively. FS and FSB are the fluorescent intensities of the sample with and without MG, respectively.

[2] = Direct MG-trapping activity by HPLC; conditions: compound 0.1 mM, MG 0.1 mM, PBS pH 7.4, 37 °C, 24 h; HPLC of 2-MQ
Experimental: Figure 3 The percentage of MG-trapping abilities of isolated compounds (0.1 mM). The results are presented as the mean ± SEM for n = 3. Different letters show significant differences, as analyzed by ANOVA, with Duncan’s post hoc test (p < 0.05).
The ability of the isolated compounds to trap MG was carried out, according to our previous report. The reaction mixture of MG (0.1 mM), isolated compound (0.1 mM in DMSO) and 0.1 M PBS (pH 7.4) was incubated at 37 °C for 24 h. The quantitative amount of the remaining MG was determined by derivatization with o-phenylenediamine (o-PDA) to convert to 2-methylquinoxaline (2-MQ). Then, 2-MQ obtained was measured by HPLC using 5-methylquinoxaline (5-MQ) as an internal standard. The mixture comprising 100 µL of o-PDA (20 mM) and 100 µL of 5-MQ (5 mM) was added into the sample vials, and incubated at 25 °C for 30 min. HPLC analysis was performed on a Shimadzu HPLC system (binary pump; model LC-10A, an auto-injector; model SIL-10A, and a UV detector; model SPD-10A) equipped with an Inertsil ODS-3 V C18 column (4.6 × 150 mm, 5 μm particle diameter). The column was flushed with a mixture of 1:1 methanol–water at a flow rate of 1 mL/min, and a 10 μL of injection volume. The overall running time was 15 min, and the wavelength used for detection was 315 nm. The area under each chromatogram peak, 2-MQ and 5-MQ, was calculated with an LC solution program. Peak integrality proportions of 2-MQ to 5-MQ were utilized for quantitative examination. The amount of MG was calculated by utilizing the standard curve of 2-MQ/5-MQ proportion. AG was utilized as a positive control. The percentage MG-trapping was calculated utilizing the formula below:(2) %MG−trapping=100−[Amount of (MG in sample−MG in positive control)/Amount of MG in positive control×100]

rat intestinal maltase = assay: α-Glucosidase inhibitory activity and kinetic study, maltase; format: biochemical
Experimental: (§1) The α-glucosidase (from rat intestine) inhibitory effect was evaluated, utilizing our previous study. Rat intestinal maltase and sucrase, a crude enzyme solution, was prepared from rat intestinal acetone powder. A solution of rat intestinal acetone powder (1 g) in 0.9% NaCl solution (30 mL) was centrifuged (12,000 rpm) for 30 min, and then the aliquot obtained was used for the assay. The mixture of 10 μL of isolated compounds (1 mg/mL in DMSO), 30 μL of the phosphate buffer (0.1 M, pH 6.9), and 20 μL of the substrate solution (10 mM for maltose and 100 mM for sucrose in phosphate buffer) was added to a glucose assay kit (80 μL) and the crude enzyme solution (20 μL), which then was incubated at 37 °C for 10 min and 40 min for maltose and sucrose, respectively. The enzymatic activity was measured at 503 nm by using a microplate reader, model 3550 UV. The percentage inhibition was calculated by [(Ac − As)/Ac] × 100, where Ac is the absorbance of the control, and As is the absorbance in the presence of sample. The results were reported as the IC50 value, and the experiment was carried out in triplicate. Acarbose® was used as a standard control.
(§2) The kinetic analysis of pinocembrin was determined by using an increasing concentration of substrates maltose (2–10 mM) and sucrose (20–100 mM), and a Lineweaver–Burk plot was performed to determine the type of inhibition. The secondary plot was utilized to determine the Ki and Ki′ values, which were replotted between the slope and intercept from the Lineweaver–Burk plot vs the various concentrations of pinocembrin.

rat intestinal sucrase = target: T1, rat intestinal sucrase (Rattus norvegicus, UniProt P23739); assay: α-Glucosidase inhibitory activity and kinetic study, sucrase; format: biochemical
T1 construct: a crude enzyme solution, was prepared from rat intestinal acetone powder; from tissue; host or cells: rat intestine (acetone powder, crude extract)
Experimental: as §1, §2

[3] = Direct MG-trapping activity by HPLC; conditions: against methylglyoxal

T1 sequence (P23739 whole entry): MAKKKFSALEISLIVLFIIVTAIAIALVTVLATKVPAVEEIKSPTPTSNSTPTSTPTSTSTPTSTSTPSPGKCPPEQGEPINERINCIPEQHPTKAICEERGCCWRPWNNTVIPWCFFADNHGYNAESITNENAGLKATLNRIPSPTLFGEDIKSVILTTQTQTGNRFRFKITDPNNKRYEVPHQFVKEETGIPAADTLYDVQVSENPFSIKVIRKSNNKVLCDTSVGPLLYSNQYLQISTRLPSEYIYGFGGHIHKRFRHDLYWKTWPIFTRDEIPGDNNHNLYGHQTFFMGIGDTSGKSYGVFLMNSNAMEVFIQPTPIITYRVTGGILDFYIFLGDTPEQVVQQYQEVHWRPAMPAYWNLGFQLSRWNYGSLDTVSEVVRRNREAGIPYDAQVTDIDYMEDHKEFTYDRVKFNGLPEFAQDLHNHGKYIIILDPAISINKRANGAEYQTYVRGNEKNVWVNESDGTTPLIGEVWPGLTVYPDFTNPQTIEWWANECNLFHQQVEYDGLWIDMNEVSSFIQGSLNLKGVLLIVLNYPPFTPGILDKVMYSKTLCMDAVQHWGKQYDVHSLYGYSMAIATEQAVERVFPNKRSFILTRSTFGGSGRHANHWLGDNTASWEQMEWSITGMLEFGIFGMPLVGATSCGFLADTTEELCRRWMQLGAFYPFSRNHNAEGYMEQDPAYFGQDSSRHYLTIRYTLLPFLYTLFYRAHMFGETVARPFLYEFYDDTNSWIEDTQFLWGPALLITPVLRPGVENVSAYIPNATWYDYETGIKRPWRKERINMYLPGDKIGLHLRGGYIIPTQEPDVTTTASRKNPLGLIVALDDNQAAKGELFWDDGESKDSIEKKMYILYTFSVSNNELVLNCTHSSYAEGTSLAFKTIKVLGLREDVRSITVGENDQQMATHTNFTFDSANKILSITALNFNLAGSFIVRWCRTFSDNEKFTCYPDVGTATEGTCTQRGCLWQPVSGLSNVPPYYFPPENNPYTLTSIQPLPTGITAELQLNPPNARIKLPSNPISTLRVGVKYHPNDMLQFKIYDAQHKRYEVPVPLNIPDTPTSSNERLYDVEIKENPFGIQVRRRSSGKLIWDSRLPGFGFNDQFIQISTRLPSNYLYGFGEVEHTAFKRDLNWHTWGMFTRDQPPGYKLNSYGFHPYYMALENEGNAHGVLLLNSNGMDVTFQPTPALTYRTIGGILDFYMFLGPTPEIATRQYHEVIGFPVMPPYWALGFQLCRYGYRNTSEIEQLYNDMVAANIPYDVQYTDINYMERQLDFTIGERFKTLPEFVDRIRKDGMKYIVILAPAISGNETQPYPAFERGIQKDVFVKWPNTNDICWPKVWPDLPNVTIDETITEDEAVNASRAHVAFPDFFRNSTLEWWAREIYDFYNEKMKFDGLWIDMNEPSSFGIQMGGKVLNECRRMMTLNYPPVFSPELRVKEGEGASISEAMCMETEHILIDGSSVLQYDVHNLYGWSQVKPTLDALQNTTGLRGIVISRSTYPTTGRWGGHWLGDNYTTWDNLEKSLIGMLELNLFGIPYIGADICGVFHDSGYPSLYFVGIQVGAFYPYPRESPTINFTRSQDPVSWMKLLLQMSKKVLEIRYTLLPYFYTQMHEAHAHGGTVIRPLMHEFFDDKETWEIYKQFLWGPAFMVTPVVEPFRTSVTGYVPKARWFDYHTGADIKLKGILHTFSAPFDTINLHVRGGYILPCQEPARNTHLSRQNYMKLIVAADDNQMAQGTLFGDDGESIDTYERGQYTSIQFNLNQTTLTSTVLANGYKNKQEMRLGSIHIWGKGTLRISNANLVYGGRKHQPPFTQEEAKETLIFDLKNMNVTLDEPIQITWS

| Compound | Inhibition of MG-derived AGEs formation [1] | MG-trapping activity, percentage related to AG (100%) [2] | other results |
| --- | --- | --- | --- |
| Cl.N=C(N)NN [AG, Aminoguanidine hydrochloride, reference compound] | 28% | 100% | – |
| O=C1C[C@@H](c2ccccc2)Oc2cc(O)cc(O)c21 [compound 1, pinocembrin] | 38% | 109% | Inhibition Type (rat intestinal maltase; maltase, Lineweaver–Burk plot): mixed-type; Ki (rat intestinal maltase; maltase, dissociation constant of EI complex, secondary plot of slope): 93 µM; Ki (rat intestinal maltase; maltase, dissociation constant of ESI complex, secondary plot of intercept): 138 µM; IC50 (rat intestinal maltase; rat intestinal maltase, substrate maltose, read-out: IC50 against maltase): 350 ± 21 µM; IC50 (rat intestinal sucrase; rat intestinal sucrase, substrate sucrose, read-out: IC50 against sucrose): 390 ± 20 µM; Inhibition Type (rat intestinal sucrase; sucrase, Lineweaver–Burk plot): mixed-type inhibition; Ki (rat intestinal sucrase; sucrase, dissociation constant of EI complex): 51 µM; Ki (rat intestinal sucrase; sucrase, dissociation constant of ESI complex): 253 µM; EC50 [3]: 63.2 ± 10.1 µM |
| COc1cc(O)c2c(c1)O[C@H](c1ccccc1)CC2=O [compound 2, pinostrobin] | 19% | 5% | – |
| COc1cc(O)cc(O)c1C(=O)/C=C/c1ccccc1 [compound 4, cardamomin] | 44% | 28% | – |
| COc1cc2c(c(O)c1C(=O)/C=C/c1ccccc1)C=CC(C)(CCC=C(C)C)O2 (stereo not drawn) [compound 5, boesenbergin B] | 39% | 19% | – |
| COc1cc(O)c(C(=O)[C@@H]2[C@H](CC=C(C)C)C(C)=CC[C@H]2c2ccccc2)c(O)c1 [compound 6, panduratin A] | 43% | 60% | – |
| COc1cc(O)cc(O)c1C(=O)C1C(CC=C(C)C)C(C)=CCC1c1ccccc1 (stereo not drawn) [compound 7, isopanduratin A] | 36% | 9% | – |
| COc1cc(/C=C/c2ccccc2)oc(=O)c1 [compound 8, demethoxyyangonin] | 46% | 23% | – |
| alpinetin [compound 3] | 50% | 14% | – |
